This note sets out measurements from patent publication US20230181727A1, “COMPOSITION OF NANOPARTICLES” (priority 2020, published 2023).

The nature of data set [1]: Solubility enhancement of epitopes (solubility in water). The data set is classed as physicochemical. From the text:
On the N-terminal site of the enzymatically cleaved linker the addition of polar amino acids can be used to enhance the solubility of the whole peptide. […] The use in a human vaccine is difficult. In animal studies researchers dissolve it in DMSO. The solubility after e.g. subcutaneous injection is questionable: dilution might result in precipitation of large peptide particles, which is very unfavorable for transport to lymphnodes.
According to the invention the epitope […] was enlarged on the N-terminal site with the enzymatic cleavable linker Val-Cit and the cationic solubilizing sequence Lys-Lys-Lys, leading to […]

Another data set concerns DC2.4 cells. Description: MHC I cross presentation of OVA 257-264 in DC2.4 cells. It counts as cell-based, murine. The following applies: 5 μM, 6 h incubation, 25-D1.16 antibody, flow cytometry. Here is the method:
In the experiment, the OVA257-264 presentation efficacy after incubation of 5.10^4 DC2.4 cells with 5 μM solutions of full length protein (OVA=Ovalbumin), N— and C-terminal elongated epitope (OVA247-264A5K, a so called synthetic long peptide (SLP)), N-terminal elongated epitope with a Cathepsin B cleavable sequence (exemplary shown RW-Cit-OVA257-264) or native epitope (OVA257-264), each with and without nanoparticles, was compared. […] After an incubation time of 6 h, the test substances are removed by washing with phosphate-buffered saline (PBS). In the next step, the cells were incubated with CD1 6/CD32 antibody in order to block the non-specific binding of the detection antibody to the Fc (Fragment, crystallizable) receptor of the cells. After incubation with 25-D1.16 antibody, the amount of cross-presented OVA257-264 was quantified by flow cytometry.
FIG. 16: OVA257-264 MHC I expression after 6 h incubation of H2-Kb positive cells with 5 μM solution of native or elongated OVA257-264 epitope or full length OVA protein with or without SiO2—PO3H2. Quantification was carried out by flow cytometry after labeling with 25-D1.16 detection antibody.

For the molecule `CC[C@H](C)[C@H](NC(=O)CNC(=O)[C@H](CC(C)C)NC(=O)[C@@H](NC(=O)CNC(=O)[C@H](CCSC)NC(=O)[C@H](CC(C)C)NC(=O)[C@@H](N)CC(C)C)[C@@H](C)O)C(=O)N[C@H](C(=O)O)C(C)C`, in data set [1], the solubility in water entry is recorded as “very bad solubility in water”. Regarding `CC[C@H](C)[C@H](NC(=O)CNC(=O)[C@H](CC(C)C)NC(=O)[C@@H](NC(=O)CNC(=O)[C@H](CCSC)NC(=O)[C@H](CC(C)C)NC(=O)[C@H](CC(C)C)NC(=O)[C@H](CCCNC(N)=O)NC(=O)[C@@H](NC(=O)[C@H](CCCCN)NC(=O)[C@H](CCCCN)NC(=O)[C@@H](N)CCCCN)C(C)C)[C@@H](C)O)C(=O)N[C@H](C(=O)O)C(C)C`, the solubility in water entry in data set [1] is listed as “excellent solubility in water”. As for SIINFEKL [OVA257-264], the “OVA257-264 MHC I expression” value in the data set with DC2.4 cells was “presented in significant amounts”.
